Where a name gives a salt, the structure may show the parent alone.

For experiment [1], the system named is IL-2 secretion by human effector memory T cells (TEM). The experiment can be described thus: Effector memory T cells IL-2 release assay. The experiment is classed as cell-based. Particulars: T-cell; human CD4+ effector memory T cells, CD3/CD28 bead stimulation, 24 h; read-out: CD4TC IL2 IC50. The gist of the method:
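Human CD4+ effector memory T cells from healthy-donor buffy coats were stimulated with anti-CD3/CD28 Dynabeads and exposed to 10 semi-log compound doses (0.1% DMSO) for 24 h at 37 °C. Supernatant IL-2 was measured by HTRF, and IC50 came from a 4-parameter logistic fit to maximal IL-2. Viability was checked by flow cytometry.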

The target of experiment [2] is Recombinant human MALT-1 (amino acids 340-824) (Homo sapiens (Human), UniProt Q9UDY8). Briefly: MALT-1 inhibition assay (fluorogenic substrate Ac-LRSR-Rh110-DP). The class given is biochemical. Particulars: recombinant human MALT-1, substrate Ac-LRSR-Rh110-DP. The gist of the method:
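MALT-1 at 3 nM final was reacted with 10 μM Ac-LRSR-Rh110-DP, with substrate addition starting the reaction. Incubation ran 60 minutes at 25° C in the dark. Percent inhibition from fluorescence across doses was fitted to a 4-parameter logistic to give IC50.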

Sequence of Recombinant human MALT-1 (amino acids 340-824) (Q9UDY8 340-824): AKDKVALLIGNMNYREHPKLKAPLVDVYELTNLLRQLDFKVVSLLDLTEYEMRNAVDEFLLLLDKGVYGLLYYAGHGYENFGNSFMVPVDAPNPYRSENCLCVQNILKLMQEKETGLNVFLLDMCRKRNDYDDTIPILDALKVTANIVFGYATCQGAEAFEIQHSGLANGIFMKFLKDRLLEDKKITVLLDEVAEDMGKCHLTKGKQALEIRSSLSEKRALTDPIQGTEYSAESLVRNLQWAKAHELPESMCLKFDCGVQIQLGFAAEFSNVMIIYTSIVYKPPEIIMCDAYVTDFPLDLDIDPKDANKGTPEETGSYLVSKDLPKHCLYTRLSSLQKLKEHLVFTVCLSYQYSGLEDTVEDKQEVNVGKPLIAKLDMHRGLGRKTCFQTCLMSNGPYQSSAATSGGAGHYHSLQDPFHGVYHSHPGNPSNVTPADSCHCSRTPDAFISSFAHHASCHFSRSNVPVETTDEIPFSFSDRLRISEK

As to `CN(C(=O)[C@H]1CC[S@@+]([O-])CC1)[C@@H](c1ccc(N2CCC3(CC3)c3c2cnc2cc(Cl)nn32)cc1)C(F)(F)F` (relative stereo) [CPD0072778, (1rel-s,4rel-s)-N-[(1S)-1-(4-{4′-chloro-2′,3′,7′,10′-tetraazaspiro[cyclopropane-1,13′-tricyclo[7.4.0.0^2,6]tridecane]-1′(9′),3′,5′,7′-tetraen-10′-yl}phenyl)-2,2,2-trifluoroethyl]-N-methyl-1-oxo-1λ^4-thiane-4-carboxamide], the 50% inhibitory concentration (IC50) in experiment [1] worked out at 42 nM; in experiment [2], 58 nM.

For `COC[C@@]1(C)CCN(c2ccc([C@H](N(C)C(=O)[C@H]3CC[S@@](=N)(=O)CC3)C(F)(F)F)cc2)c2cnc3cc(Cl)nn3c21` (relative stereo) [CPD0073133, (1rel-s,4rel-s)-N-[(1S)-1-[4-[(13rel-S)-4-chloro-13-(methoxymethyl)-13-methyl-2,3,7,10-tetrazatricyclo[7.4.0.0^2,6]trideca-1(9),3,5,7-tetraen-10-yl]phenyl]-2,2,2-trifluoro-ethyl]-1-imino-N-methyl-1-oxo-1λ^6-thiane-4-carboxamide], the IC50 is 64 nM in experiment [1] and 81 nM in experiment [2].

As to `CN(C(=O)[C@@H]1CCC(=O)N1)[C@@H](c1ccc(N2CCCc3c2cnc2cc(Cl)nn32)cc1)C(F)(F)F` (relative stereo) [CPD0073566, (2rel-S)-N-[(1S)-1-(4-{4-chloro-2,3,7,10-tetraazatricyclo[7.4.0.0^2,6]trideca-1(9),3,5,7-tetraen-10-yl}phenyl)-2,2,2-trifluoroethyl]-N-methyl-5-oxopyrrolidine-2-carboxamide], the half-inhibitory concentration (IC50) in experiment [1] was found to be 241 nM; in experiment [2], 76 nM.

For the molecule `CN(C(=O)C1CCCOC1)[C@@H](c1ccc(N2CCCc3c2cnc2cc(Cl)nn32)cc1)C(F)(F)F` (stereo partly drawn) [CPD0021572, N-[(1S)-1-(4-{4-chloro-2,3,7,10-tetraazatricyclo[7.4.0.0^2,6]trideca-1(9),3,5,7-tetraen-10-yl}phenyl)-2,2,2-trifluoroethyl]-N-methyloxane-3-carboxamide], the IC50 in experiment [1] is 193 nM; in experiment [2], 166 nM.

For `CN(C(=O)C1CCCS(=O)(=O)C1)[C@@H](c1ccc(N2CCCc3c2cnc2cc(Cl)nn32)cc1)C(F)(F)F` (stereo partly drawn) [CPD0021571, N-[(1S)-1-(4-{4-chloro-2,3,7,10-tetraazatricyclo[7.4.0.0^2,6]trideca-1(9),3,5,7-tetraen-10-yl}phenyl)-2,2,2-trifluoroethyl]-N-methyl-1,1-dioxo-1λ^6-thiane-3-carboxamide], the values for the IC50 in experiment [1] and in experiment [2] were 332 nM and 247 nM, respectively.

As to `CN(C(=O)[C@H]1CC[S@+]([O-])CC1)[C@@H](c1ccc(N2CCCc3c2cnc2cc(Cl)nn32)cc1)C(F)(F)F` (relative stereo) [CPD0022137, (1rel-r,4rel-r)-N-[(1S)-1-(4-{4-chloro-2,3,7,10-tetraazatricyclo[7.4.0.0^2,6]trideca-1(9),3,5,7-tetraen-10-yl}phenyl)-2,2,2-trifluoroethyl]-N-methyl-1-oxo-1λ^4-thiane-4-carboxamide], the figures for the IC50 in experiment [1] and in experiment [2] were 127 nM and 73 nM, respectively.

In the case of `C[C@H]1CCN(c2ccc([C@H](N(C)C(=O)[C@@H]3CCC(=O)NC3)C(F)(F)F)cc2)c2cnc3cc(Cl)nn3c21` (relative stereo) [CPD0074567, (3rel-R)-N-[(1S)-1-[4-[(13rel-S)-4-chloro-13-methyl-2,3,7,10-tetrazatricyclo[7.4.0.0^2,6]trideca-1(9),3,5,7-tetraen-10-yl]phenyl]-2,2,2-trifluoro-ethyl]-N-methyl-6-oxo-piperidine-3-carboxamide], the 50% inhibitory concentration (IC50) in experiment [1] was determined as 87 nM; in experiment [2], 31 nM.

Regarding `O=C(N[C@@H](c1ccc(N2CCCc3c2cnc2cc(Cl)nn32)cc1)C(F)(F)F)C1CCS(=O)(=O)CC1` [CPD0021755, N-[(1S)-1-(4-{4-chloro-2,3,7,10-tetraazatricyclo[7.4.0.0^2,6]trideca-1(9),3,5,7-tetraen-10-yl}phenyl)-2,2,2-trifluoroethyl]-1,1-dioxo-1λ^e-thiane-4-carboxamide], the 50% inhibitory concentration (IC50) amounted to 845 nM in experiment [1] and 433 nM in experiment [2].

For `CNCC(=O)N1CC[C@@H](C(=O)N(C)[C@@H](c2ccc(N3CCCc4c3cnc3cc(Cl)nn43)cc2)C(F)(F)F)C1` (relative stereo) [CPD0075881, (3 rel-S)—N-[(1S)-1-[4-(4-chloro-2,3,7,10-tetrazatricyclo[7.4.0.0^2,6]trideca-1(9),3,5,7-tetraen-10-yl)phenyl]-2,2,2-trifluoro-ethyl]-N-methyl-1-[2-(methylamino)acetyl]pyrrolidine-3-carboxamide hydrochloride], the 50% inhibitory concentration (IC50) in experiment [1] is 210 nM; in experiment [2], 68 nM.

As to `CN(C(=O)[C@H]1CCN(C(=O)CO)C1)[C@@H](c1ccc(N2CCCc3c2cnc2cc(Cl)nn32)cc1)C(F)(F)F` (relative stereo) [CPD0073977, (3rel-S)—N-[(1S)-1-(4-{4-chloro-2,3,7,10-tetraazatricyclo[7.4.0.0^2,6]trideca-1(9),3,5,7-tetraen-10-yl}phenyl)-2,2,2-trifluoroethyl]-1-(2-hydroxyacetyl)-N-methylpyrrolidine-3-carboxamide], the IC50 turned out to be 115 nM in experiment [1] and 39 nM in experiment [2].

As to `Cc1ncc(C(=O)N(C)[C@@H](c2ccc(N3CCCc4c3cnc3cc(Cl)nn43)cc2)C(F)(F)F)n1C` [CPD0019346, N-[(1S)-1-(4-{4-chloro-2,3,7,10-tetraazatricyclo[7.4.0.0^2,6]trideca-1(9),3,5,7-tetraen-10-yl}phenyl)-2,2,2-trifluoroethyl]-N,1,2-trimethyl-1H-imidazole-5-carboxamide], the results for the IC50 in experiment [1] and in experiment [2] were 720 nM and 535 nM, respectively.

With `CN(C(=O)[C@H]1CC[S@](=N)(=O)CC1)[C@@H](c1ccc(N2CCC(C)(C)c3c2cnc2cc(F)nn32)cc1)C(F)(F)F` (relative stereo) [CPD0072783, (1rel-r,4rel-r)-1-imino-N-methyl-1-oxo-N-[(1S)-2,2,2-trifluoro-1-(4-{4′-fluoro-2′,3′,7′,10′-tetraazaspiro[cyclopropane-1,13′-tricyclo[7.4.0.0^2,6]tridecane]-1′(9′),3′,5′,7′-tetraen-10′-yl}phenyl)ethyl]-1λ^6-thiane-4-carboxamide], the half-inhibitory concentration (IC50) in experiment [1] amounted to 114 nM; in experiment [2] it was 63 nM.

As to `CN(C(=O)C1CCS(=O)(=O)CC1)[C@@H](c1ccc(N2CCCc3c2cnc2cc(F)nn32)nc1)C(F)(F)F` [CPD0021665, N-methyl-1,1-dioxo-N-[(1S)-2,2,2-trifluoro-1-(6-{4-fluoro-2,3,7,10-tetraazatricyclo[7.4.0.0^2,6]trideca-1(9),3,5,7-tetraen-10-yl}pyridin-3-yl)ethyl]-1λ^6-thiane-4-carboxamide], the half-inhibitory concentration (IC50) in experiment [1] stood at 2100 nM; in experiment [2], 638 nM.

Regarding `CN(C(=O)C1CCN(C(=O)CO)CC1)[C@@H](c1ccc(N2CCCc3c2cnc2cc(Cl)nn32)cc1)C(F)(F)F` [CPD0073091, N-[(1S)-1-(4-{4-chloro-2,3,7,10-tetraazatricyclo[7.4.0.0^2,6]trideca-1(9),3,5,7-tetraen-10-yl}phenyl)-2,2,2-trifluoroethyl]-1-(2-hydroxyacetyl)-N-methylpiperidine-4-carboxamide], the half-inhibitory concentration (IC50) in experiment [1] came to 101 nM; in experiment [2], 59 nM.

With `CN(C(=O)C1CCS(=O)(=O)CC1)[C@@H](c1ccc(N2CCCc3c2cnc2cc(Cl)nn32)cc1)C(F)(F)F` [CPD0019184, N-[(1S)-1-(4-{4-chloro-2,3,7,10-tetraazatricyclo[7.4.0.0^2,6]trideca-1(9),3,5,7-tetraen-10-yl}phenyl)-2,2,2-trifluoroethyl]-N-methyl-1,1-dioxo-1λ^6-thiane-4-carboxamide], the IC50 in experiment [1] amounted to 68 nM; in experiment [2], 59 nM.

As to `C[C@@H]1CCN(c2ccc([C@H](N(C)C(=O)[C@H]3CC[S@@](=N)(=O)CC3)C(F)(F)F)cc2)c2cnc3cc(F)nn3c21` (relative stereo) [CPD0074556, (1rel r, 4rel r)1-imino-N-methyl-1-oxo-N-[(1S)-2,2,2-trifluoro-1-[4-[(13 rel R)-4-fluoro-13-methyl-2,3,7,10-tetrazatricyclo[7.4.0.0^2,6]trideca-1(9),3,5,7-tetraen-10-yl]phenyl]ethyl]thiane-4-carboxamide], the results for the half-maximal inhibitory concentration (IC50) in experiment [1] and in experiment [2] were 168 nM and 62 nM, respectively.

For the molecule `Cc1nn(C)cc1C(=O)N(C)[C@@H](c1ccc(N2CCCc3c2cnc2cc(Cl)nn32)cc1)C(F)(F)F` [CPD0019347, N-[(1S)-1-(4-{4-chloro-2,3,7,10-tetraazatricyclo[7.4.0.0^2,6]trideca-1(9),3,5,7-tetraen-10-yl}phenyl)-2,2,2-trifluoroethyl]-N,1,3-trimethyl-1H-pyrazole-4-carboxamide], the concentration for half-maximal inhibition (IC50) in experiment [1] was 132 nM; in experiment [2] it was 244 nM.

In the case of `CN(C(=O)[C@@H]1CC12CCS(=O)(=O)CC2)[C@@H](c1ccc(N2CCCc3c2cnc2cc(Cl)nn32)cc1)C(F)(F)F` (relative stereo) [CPD0073921, (1rel-R)-N-[(1S)-1-(4-{4-chloro-2,3,7,10-tetraazatricyclo[7.4.0.0^2,6]trideca-1(9),3,5,7-tetraen-10-yl}phenyl)-2,2,2-trifluoroethyl]-N-methyl-6,6-dioxo-6λ^6-thiaspiro[2.5]octane-1-carboxamide], the results for the concentration for half-maximal inhibition (IC50) in experiment [1] and in experiment [2] were 186 nM and 109 nM, respectively.

Broadly, the IC50 is the concentration that inhibits the measured activity by half.

The values are drawn from patent publication US20250051327A1, “MALT-1 MODULATORS” (EXSCIENTIA AI LIMITED, priority 2020, published 2025).
